In patent EP3072956A1, “Selective culture medium for polymyxin-resistant, gram-negative bacteria” (priority 2015, dated 2016):

What was measured:
Assay in all cases: MIC determination by broth microdilution (MHB-CA, CLSI)
Type in all cases: cell-based
B. cepacia = details: strain Bcep
Procedure: (§1) Determination of MIC values were performed by broth microdilution in Cation-Adjusted Mueller-Hinton broth (MHB-CA) according to the CLSI guidelines (Clinical and Laboratory Standards Institute). Polymyxin B and colistin (Sigma-Aldrich, Saint-Louis) were tested with or without Tween 80 over a range dilution from 0.12 to 128 µg/ml. The surfactant Tween 80, at a final concentration of 0.002%, prevents the binding of polymyxins to multi-array plastic panel. Actually, the use of Tween for determination of MIC of polymyxins is still debatable. MHB-CA broth and 5.10^5 CFU/ml of each tested strain were distributed in each well. Following the EUCAST breakpoints, strains were characterized as susceptible or resistant to polymyxins.

C. freundii = tested on: C. freundii
Procedure: as §1

E. aerogenes = details: strain 36F8
Procedure: as §1

E. cloacae = tested on: E. cloacae
Procedure: as §1

E. coli = tested on: E. coli
Procedure: as §1

H. alvei = details: strain ER
Procedure: as §1

K. oxytoca = details: strain C24
Procedure: as §1

K. pneumoniae = tested on: K. pneumoniae
Procedure: as §1

M. morganii = details: strain Mmor
Procedure: as §1

P. aeruginosa = tested on: P. aeruginosa
Procedure: as §1

P. mirabilis = details: strain Pmir
Procedure: as §1

P. stuartii = details: strain Pstu
Procedure: as §1

P. vulgaris = details: strain Pvul
Procedure: as §1

S. marcescens = details: strain Smar
Procedure: as §1

Measured: MIC

polymyxin B
>128 µg/mL: B. cepacia; With Tween80 | B. cepacia; Without Tween80 | E. cloacae; strain HM, With Tween80 | E. cloacae; strain HM, Without Tween80 | K. pneumoniae; strain C7, With Tween80 | K. pneumoniae; strain C7, Without Tween80 | K. pneumoniae; strain C27, With Tween80 | K. pneumoniae; strain C27, Without Tween80 | M. morganii; With Tween80 | M. morganii; Without Tween80 | P. mirabilis; With Tween80 | P. mirabilis; Without Tween80 | P. stuartii; With Tween80 | P. stuartii; Without Tween80 | P. vulgaris; With Tween80 | P. vulgaris; Without Tween80 | S. marcescens; With Tween80 | S. marcescens; Without Tween80
0.125 µg/mL: E. coli; strain Eco OmpC-OmpF-, Without Tween80 | K. pneumoniae; strain Kp OmpK3 5-OmpK3 6-, Without Tween80
0.12 µg/mL: E. aerogenes; With Tween80 | E. aerogenes; Without Tween80 | E. cloacae; strain C144, With Tween80 | E. coli; strain 36A6, With Tween80 | E. coli; strain 36A6, Without Tween80 | E. coli; strain 36D7, With Tween80 | E. coli; strain 36D7, Without Tween80 | E. coli; strain 38D6, With Tween80 | E. coli; strain 38D6, Without Tween80 | E. coli; strain ATCC 25922, With Tween80 | E. coli; strain C140, With Tween80 | E. coli; strain Eco OmpC-OmpF-, With Tween80 | K. pneumoniae; strain 36A5, With Tween80 | K. pneumoniae; strain 36A5, Without Tween80 | K. pneumoniae; strain 38B7, Without Tween80 | K. pneumoniae; strain C115, With Tween80 | K. pneumoniae; strain Kp OmpK3 5-OmpK3 6-, With Tween80 | P. aeruginosa; strain ATCC 27853, With Tween80
4 µg/mL: E. coli; strain 27852, With Tween80 | E. coli; strain 27852, Without Tween80 | E. coli; strain 30742, With Tween80 | E. coli; strain 30742, Without Tween80
0.5 µg/mL: C. freundii; strain 38B2, With Tween80 | C. freundii; strain 38B2, Without Tween80 | C. freundii; strain C136, Without Tween80 | K. pneumoniae; strain 36A7, With Tween80 | K. pneumoniae; strain 36A7, Without Tween80 | K. pneumoniae; strain 38B7, With Tween80 | K. pneumoniae; strain C115, Without Tween80 | K. pneumoniae; strain C130, With Tween80 | K. pneumoniae; strain C132, With Tween80 | P. aeruginosa; strain ATCC 27853, Without Tween80 | P. aeruginosa; strain C133, With Tween80
2 µg/mL: E. coli; strain 28509, With Tween80 | E. coli; strain 28509, Without Tween80
128 µg/mL: K. pneumoniae; strain 75b, With Tween80 | K. pneumoniae; strain 75b, Without Tween80 | K. pneumoniae; strain BICb, With Tween80 | K. pneumoniae; strain BICb, Without Tween80 | K. pneumoniae; strain C1, Without Tween80 | K. pneumoniae; strain C11, Without Tween80 | K. pneumoniae; strain C12, Without Tween80 | K. pneumoniae; strain C21, With Tween80 | K. pneumoniae; strain C21, Without Tween80 | K. pneumoniae; strain C26, With Tween80 | K. pneumoniae; strain C26, Without Tween80
1 µg/mL: P. aeruginosa; strain 38J8, Without Tween80 | P. aeruginosa; strain C111, Without Tween80 | P. aeruginosa; strain C131, Without Tween80 | P. aeruginosa; strain C133, Without Tween80
64 µg/mL: K. oxytoca; With Tween80 | K. oxytoca; Without Tween80 | K. pneumoniae; strain 12E2, With Tween80 | K. pneumoniae; strain 12E2, Without Tween80 | K. pneumoniae; strain 13G2, With Tween80 | K. pneumoniae; strain 13G2, Without Tween80 | K. pneumoniae; strain C1, With Tween80 | K. pneumoniae; strain C11, With Tween80 | K. pneumoniae; strain C12, With Tween80 | K. pneumoniae; strain C16, With Tween80 | K. pneumoniae; strain C22, With Tween80 | K. pneumoniae; strain C22, Without Tween80 | K. pneumoniae; strain C25, Without Tween80 | K. pneumoniae; strain Sa, With Tween80 | K. pneumoniae; strain Sa, Without Tween80 | K. pneumoniae; strain T1b, With Tween80 | K. pneumoniae; strain T1b, Without Tween80
8 µg/mL: E. coli; strain 27563, With Tween80 | E. coli; strain 27837, With Tween80 | E. coli; strain 27837, Without Tween80 | E. coli; strain 27850, With Tween80 | E. coli; strain 27850, Without Tween80 | H. alvei; Without Tween80 | K. pneumoniae; strain AF1b, With Tween80 | K. pneumoniae; strain AF1b, Without Tween80
32 µg/mL: K. pneumoniae; strain 18J1, With Tween80 | K. pneumoniae; strain 18J1, Without Tween80 | K. pneumoniae; strain 1118, With Tween80 | K. pneumoniae; strain 1118, Without Tween80 | K. pneumoniae; strain 1515, With Tween80 | K. pneumoniae; strain 1515, Without Tween80 | K. pneumoniae; strain C3, Without Tween80 | K. pneumoniae; strain C16, Without Tween80 | K. pneumoniae; strain C25, With Tween80 | K. pneumoniae; strain T4, With Tween80 | K. pneumoniae; strain T4, Without Tween80 | K. pneumoniae; strain T5, With Tween80 | K. pneumoniae; strain T5, Without Tween80
16 µg/mL: E. cloacae; strain C28, With Tween80 | E. cloacae; strain C28, Without Tween80 | E. coli; strain 27563, Without Tween80 | H. alvei; With Tween80 | K. pneumoniae; strain C3, With Tween80
0.25 µg/mL: C. freundii; strain C136, With Tween80 | E. cloacae; strain 38A10, With Tween80 | E. cloacae; strain 38A10, Without Tween80 | E. cloacae; strain C129, With Tween80 | E. cloacae; strain C129, Without Tween80 | E. cloacae; strain C144, Without Tween80 | E. coli; strain ATCC 25922, Without Tween80 | E. coli; strain C140, Without Tween80 | K. pneumoniae; strain 36A4, With Tween80 | K. pneumoniae; strain 36A4, Without Tween80 | K. pneumoniae; strain C112, With Tween80 | K. pneumoniae; strain C112, Without Tween80 | K. pneumoniae; strain C130, Without Tween80 | K. pneumoniae; strain C132, Without Tween80 | P. aeruginosa; strain 38J8, With Tween80 | P. aeruginosa; strain C111, With Tween80 | P. aeruginosa; strain C131, With Tween80
